Assay results published in paper PMC6882465, “Towards discovery of new leishmanicidal scaffolds able to inhibit Leishmania GSK-3” (Journal of Enzyme Inhibition and Medicinal Chemistry, 2019).

target: LdGSK-3 (Leishmania donovani, UniProt A6N857); test: Inhibition of LdGSK-3 with Kinase Glo; format: biochemical; conditions: Table 1; read-out: LdGSK-3 IC50
Sequence (A6N857 entry or part of it): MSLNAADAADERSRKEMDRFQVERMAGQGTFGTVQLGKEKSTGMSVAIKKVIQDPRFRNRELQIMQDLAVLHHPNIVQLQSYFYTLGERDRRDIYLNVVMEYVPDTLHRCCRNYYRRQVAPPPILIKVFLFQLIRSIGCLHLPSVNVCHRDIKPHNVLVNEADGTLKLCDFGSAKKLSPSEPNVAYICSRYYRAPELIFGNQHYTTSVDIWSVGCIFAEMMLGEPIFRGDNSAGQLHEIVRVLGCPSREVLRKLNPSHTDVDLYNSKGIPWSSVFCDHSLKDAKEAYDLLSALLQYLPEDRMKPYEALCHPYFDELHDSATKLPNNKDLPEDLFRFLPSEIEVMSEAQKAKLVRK
Description: Assessment of inhibition of LdGSK-3 with Kinase Glo^TM
The reaction was allowed to proceed for 30 min at 30 °C, then it was incubated at room temperature for another 10 min after addition of Kinase Glo reagents (Promega, Ref. V6712). ATP consumption by LdGSK-3 was measured indirectly through end-point luminescence measurement of each well in a Varioskan Flash microplate reader (Thermo).

Row | Structure (SMILES) | IC50
1 | O=C1Nc2ccc(S(=O)(=O)O)cc2C1=C1Nc2ccccc2C1=NO [Indirubin-3’-monoxime-5-sulphonic acid, reference compound] | 2400 nM

same assay, conditions: Table S2; 10 µM

Row | Structure (SMILES) | % inhibition @ 10µM (initial screening on LdGSK3)
2 | COc1ccc(OC)c2c(=O)c(Cc3ccccc3)c(C)[nH]c12 [Compound 110] | -0.10±5.35%
3 | Cl.NCc1ccc2c(Cl)cc(Cl)c(O)c2n1 [Compound 121] | 14.80±1.70%
4 | Cc1cn[nH]c1C1CCCN(Cc2nc3ccccc3n2C)C1 (centres unmarked) [Compound 114] | 2.85±0.45%
5 | COc1ccccc1-n1c(SCC(=O)Nc2ccc3c(c2)OCO3)nc2c(c1=O)SCC2 [Compound 172] | 5.20±2.65%
6 | Cc1nc(C(=O)Nc2ccc3c(c2)OCO3)nn1-c1ccc(Cl)cc1 [Compound 149] | 8.90±2.10%
7 | CN(Cc1nc2ccc(C(=O)NCC3CCCCC3)cc2[nH]1)C1CCCc2cccnc21.O=C(O)C(F)(F)F (centres unmarked) [Compound 28] | 1.15±1.75%
8 | CCn1c(NC(=O)Cc2ccc(F)cc2)nc2ccccc21 [Compound 138] | 13.00±3.55%
9 | Cc1cc(C)n(-c2nc(NC(C)(C)C)nc(N3CCOCC3)n2)n1 [Compound 196] | -2.80±6.35%
10 | CCN(CC)c1nc(N(C)C)nc2c1CN(Cc1ccccc1)CC2 [Compound 146] | 11.85±0.55%
11 | O=C(c1cccc(Nc2ncc(-c3ccc4c(c3)OCO4)cn2)c1)N1CCOCC1 [Compound 189] | 12.20±0.75%
12 | Cc1nc(C(=O)Nc2ccc3c(c2)OCO3)nn1-c1ccc(F)cc1 [Compound 198] | 7.15±1.10%
13 | CCCCN(C(=O)c1ccc(NC(=O)C(C)C)cc1)c1ccccc1 [Compound 168] | 14.15±2.15%
14 | COc1ccc(Cc2nc(-c3ncc4cccnc4c3O)n[nH]2)cc1OC [Compound 77] | 4.60±0.95%
15 | Cc1nc(N2CC(C)OC(C)C2)sc1C(=O)Nc1ccc2c(c1)OCO2 (centres unmarked) [Compound 209] | 16.10±4.80%
16 | COc1ccc(Cl)cc1CC(=O)Nc1n[nH]c(-c2ccccn2)n1 [Compound 122] | 3.95±2.45%
17 | Cc1nn(-c2nc(N)nc(-c3ccccn3)n2)c(C)c1Cc1ccccc1 [Compound 104] | -0.75±1.55%
18 | c1ccc(-c2nc(NC3CCCC3)c3ccccc3n2)nc1 [Compound 92] | -0.55±1.25%
19 | Cc1nn(-c2nc(N)nc(-c3ccccn3)n2)c(N)c1-c1ccccc1.O=C(O)C(F)(F)F.O=C(O)C(F)(F)F [Compound 29] | 3.80±1.90%
20 | Cc1ccc2c(c1)SC(C(=O)Nc1n[nH]c(-c3ccccn3)n1)C2 (centres unmarked) [Compound 115] | 3.20±0.80%
21 | CCC(=O)N1N=C(c2ccc3c(c2)CCCC3)Sc2c1ncn2C(=O)CC [Compound 127] | 9.65±3.70%
22 | CCCCn1nnnc1CSc1nc(C)cc(C)c1C#N [Compound 161] | 3.00±3.05%
23 | N#Cc1ccccc1S(=O)(=O)N1CCN(C(=O)CNC(=O)c2ccc3c(c2)OCO3)CC1 [Compound 82] | 1.90±2.60%
24 | CN(Cc1nc2cccc(C(=O)N3CCN(Cc4ccccc4)CC3)c2[nH]1)C1CCCc2cccnc21.O=C(O)C(F)(F)F (centres unmarked) [Compound 91] | 12.65±6.10%

Row | Structure (SMILES) | % inhibition @ 10µM (initial screening on LdGSK3)
25 | CCOc1ccc2nc(NC(=O)c3ccc([N+](=O)[O-])s3)sc2c1 [Compound 145] | 9.25±0.40%
26 | CC(C)(C)c1cc(NC2CC2)nc(-c2ccccn2)n1 [Compound 50] | 4.70±2.30%
27 | COc1ccc(NS(=O)(=O)c2ccc(S(=O)(=O)N(C)C3CCCCC3)cc2)c2ncccc12 [Compound 135] | 6.85±1.55%
28 | CCOc1ccc(CN(C)Cc2nc(N)nc(Nc3ccc(C)cc3)n2)cc1 [Compound 78] | 4.90±1.45%
29 | COc1ccc(-c2cc(C)no2)cc1S(=O)(=O)Nc1ccc(C)c(C)c1 [Compound 170] | 13.20±1.65%
30 | c1ccc(Nc2nc(-c3ccccn3)cc(N3CCOCC3)n2)cc1 [Compound 34] | -2.00±2.70%
31 | O=C(c1cccc(Nc2ncc(-c3ccc4c(c3)OCO4)cn2)c1)N1CCSC1 [Compound 140] | 18.20±7.00%
32 | O=C(Nc1ccccc1)Nc1nc(-c2ccccn2)cs1 [Compound 64] | 1.40±0.95%
33 | Cc1ccc(NC(=O)c2ccc([N+](=O)[O-])s2)cc1S(=O)(=O)N1CCOCC1 [Compound 97] | 6.15±1.05%
34 | c1ccc(Nc2nc3ccccc3[nH]2)nc1 [Compound 40] | 13.50±3.10%
35 | Cc1nn(-c2nc3ccccc3[nH]2)c2c1C(c1ccc(O)cc1)CC(=O)N2 (centres unmarked) [Compound 120] | 18.15±1.70%
36 | C=CCN(Cc1cccs1)C(=O)CSc1nnc(-c2ccc3c(c2)OCO3)o1 [Compound 206] | 10.00±0.90%
37 | Cc1ccc(Nc2nc(-c3ccccn3)cc(N3CCCC(O)C3)n2)cc1 (centres unmarked) [Compound 48] | 3.25±2.75%
38 | CNc1nc(C)nc(N2CCc3cc(C(=O)NCc4ccc(-c5nccn5C)cc4Cl)ccc32)n1.O=C(O)C(F)(F)F [Compound 83] | -5.05±0.45%
39 | O=C(c1ccc(Cl)cc1)c1ccc(OC(=O)N2CCOCC2)cc1 [Compound 163] | 3.10±0.70%
40 | Br.Fc1ccc(Nc2nc(-c3ccccn3)cs2)cc1 [Compound 171] | 4.25±2.30%
41 | Nc1nc(-c2ccccn2)nc(-n2nc(-c3cccc(C(F)(F)F)c3)cc2N)n1.O=C(O)C(F)(F)F [Compound 26] | 4.75±1.20%
42 | COc1ccc(Nc2nc(-c3ccccn3)cc(N3CCCC(O)C3)n2)cc1 (centres unmarked) [Compound 42] | 5.30±2.55%
43 | Cc1cccc(Nc2nc(-c3ccccn3)cs2)n1 [Compound 147] | 13.40±2.35%
44 | COc1ccc(NS(=O)(=O)c2cc(NC(=O)c3ccc([N+](=O)[O-])s3)ccc2OC)cc1 [Compound 131] | 19.75±3.70%
45 | COc1ccc(-c2csc(NC(=O)c3ccc([N+](=O)[O-])s3)n2)cc1OC [Compound 142] | 7.95±2.05%
46 | Cc1ccc(-c2csc(NC(=O)C=Cc3ccc(S(=O)(=O)N4CCOCC4)cc3)n2)o1 [Compound 69] | 64.27±2.13%

same assay, conditions: assayed at 10 µM

Row | Structure (SMILES) | percentage of inhibition of LdGSK-3
47 | Cc1ccc(-c2csc(NC(=O)C=Cc3ccc(S(=O)(=O)N4CCOCC4)cc3)n2)o1 [Compound 69] | higher than 50%
